Measured values: ChEMBL document CHEMBL1129221, “Inhibition of nitric oxide synthase by benzoxazolones” (Bioorg Med Chem Lett, 1997)
pIC50: −log10 of the molar value.

Tests used:
Nitric oxide synthase 1 [1] = target: T1, Nitric oxide synthase 1 (Homo sapiens, UniProt P29475); assay: Inhibitory activity against Neuronal nitric oxide synthase
[2] = target: T2, Nitric oxide synthase, inducible (Homo sapiens, UniProt P35228); assay: Inhibitory activity against Inducible nitric oxide synthase
Nitric oxide synthase 3 = target: T3, Nitric oxide synthase 3 (Homo sapiens, UniProt P29474); assay: Inhibitory activity against Endothelial nitric oxide synthase
T3 sequence (P29474 whole entry): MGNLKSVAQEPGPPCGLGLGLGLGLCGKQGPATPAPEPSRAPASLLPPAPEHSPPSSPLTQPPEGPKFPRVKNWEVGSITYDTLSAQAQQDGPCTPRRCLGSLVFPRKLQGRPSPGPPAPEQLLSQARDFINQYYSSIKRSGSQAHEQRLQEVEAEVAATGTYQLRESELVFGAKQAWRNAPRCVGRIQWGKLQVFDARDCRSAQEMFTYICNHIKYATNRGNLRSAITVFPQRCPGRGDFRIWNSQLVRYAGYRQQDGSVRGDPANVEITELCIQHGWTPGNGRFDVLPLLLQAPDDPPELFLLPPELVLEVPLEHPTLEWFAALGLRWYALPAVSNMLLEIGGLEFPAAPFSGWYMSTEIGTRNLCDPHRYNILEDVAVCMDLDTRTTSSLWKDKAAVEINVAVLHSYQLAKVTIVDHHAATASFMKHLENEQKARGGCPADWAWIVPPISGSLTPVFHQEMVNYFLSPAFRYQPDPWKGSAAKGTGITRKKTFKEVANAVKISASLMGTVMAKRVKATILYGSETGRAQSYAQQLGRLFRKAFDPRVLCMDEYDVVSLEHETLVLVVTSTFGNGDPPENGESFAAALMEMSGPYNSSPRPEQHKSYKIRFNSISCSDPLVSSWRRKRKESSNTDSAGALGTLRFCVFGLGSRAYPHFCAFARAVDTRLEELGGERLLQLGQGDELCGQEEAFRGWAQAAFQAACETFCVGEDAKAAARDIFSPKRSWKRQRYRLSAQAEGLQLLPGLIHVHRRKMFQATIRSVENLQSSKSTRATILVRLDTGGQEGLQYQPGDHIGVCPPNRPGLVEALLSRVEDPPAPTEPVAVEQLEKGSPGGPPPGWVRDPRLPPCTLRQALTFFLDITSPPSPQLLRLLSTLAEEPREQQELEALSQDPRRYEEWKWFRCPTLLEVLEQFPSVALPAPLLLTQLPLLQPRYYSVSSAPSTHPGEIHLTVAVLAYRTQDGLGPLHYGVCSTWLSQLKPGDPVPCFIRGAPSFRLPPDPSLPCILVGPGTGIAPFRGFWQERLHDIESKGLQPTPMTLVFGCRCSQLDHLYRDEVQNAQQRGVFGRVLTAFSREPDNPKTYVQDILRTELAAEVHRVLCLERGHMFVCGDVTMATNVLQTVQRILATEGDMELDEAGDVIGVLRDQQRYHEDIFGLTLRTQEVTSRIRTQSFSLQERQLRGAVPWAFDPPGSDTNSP

[3] = target: T2, Nitric oxide synthase, inducible; assay: In vitro inhibitory activity against Inducible nitric oxide synthase at 50 uM concentration
Nitric oxide synthase 1 [4] = target: T1, Nitric oxide synthase 1; assay: Compound was evaluated for in vitro inhibitory activity against Neuronal nitric oxide synthase; conditions: concentration not given here

T1 sequence (P29475 whole entry): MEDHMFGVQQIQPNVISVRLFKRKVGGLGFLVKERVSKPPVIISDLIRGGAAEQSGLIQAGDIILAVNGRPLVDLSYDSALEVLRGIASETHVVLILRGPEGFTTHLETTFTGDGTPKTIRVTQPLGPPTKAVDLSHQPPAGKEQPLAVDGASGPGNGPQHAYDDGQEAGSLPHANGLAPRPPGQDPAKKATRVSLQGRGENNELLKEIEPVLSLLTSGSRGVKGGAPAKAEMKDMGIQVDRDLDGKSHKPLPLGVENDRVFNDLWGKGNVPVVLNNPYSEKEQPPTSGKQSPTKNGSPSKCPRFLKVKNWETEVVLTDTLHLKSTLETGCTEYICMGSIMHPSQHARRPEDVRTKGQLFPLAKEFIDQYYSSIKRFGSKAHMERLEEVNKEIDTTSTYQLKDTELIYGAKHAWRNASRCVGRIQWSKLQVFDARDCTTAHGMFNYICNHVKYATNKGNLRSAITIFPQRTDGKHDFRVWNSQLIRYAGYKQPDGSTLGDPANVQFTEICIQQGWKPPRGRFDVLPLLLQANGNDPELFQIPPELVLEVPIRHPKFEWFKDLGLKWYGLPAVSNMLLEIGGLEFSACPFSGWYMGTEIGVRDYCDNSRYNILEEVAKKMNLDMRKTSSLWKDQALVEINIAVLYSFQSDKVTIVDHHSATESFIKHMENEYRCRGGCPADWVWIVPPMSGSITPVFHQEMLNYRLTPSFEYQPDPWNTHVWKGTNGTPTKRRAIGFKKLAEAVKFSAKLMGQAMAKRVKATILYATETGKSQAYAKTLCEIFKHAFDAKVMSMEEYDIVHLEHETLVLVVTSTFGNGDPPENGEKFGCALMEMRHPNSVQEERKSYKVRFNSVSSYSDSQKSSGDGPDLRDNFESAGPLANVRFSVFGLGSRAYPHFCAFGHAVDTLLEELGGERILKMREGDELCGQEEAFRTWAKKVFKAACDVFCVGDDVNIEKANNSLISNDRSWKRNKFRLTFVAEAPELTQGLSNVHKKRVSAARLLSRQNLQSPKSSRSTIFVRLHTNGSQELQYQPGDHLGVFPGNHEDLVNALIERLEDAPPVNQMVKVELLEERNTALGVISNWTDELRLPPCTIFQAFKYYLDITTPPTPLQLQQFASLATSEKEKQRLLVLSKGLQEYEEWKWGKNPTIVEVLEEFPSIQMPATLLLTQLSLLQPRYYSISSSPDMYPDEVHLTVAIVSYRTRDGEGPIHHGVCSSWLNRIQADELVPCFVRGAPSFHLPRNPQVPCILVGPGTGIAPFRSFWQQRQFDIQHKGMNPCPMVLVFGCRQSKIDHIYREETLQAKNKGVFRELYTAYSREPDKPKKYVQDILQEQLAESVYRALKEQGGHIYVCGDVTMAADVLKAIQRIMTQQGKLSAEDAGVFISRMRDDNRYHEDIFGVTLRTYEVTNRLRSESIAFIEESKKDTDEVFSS
T2 sequence (P35228 whole entry): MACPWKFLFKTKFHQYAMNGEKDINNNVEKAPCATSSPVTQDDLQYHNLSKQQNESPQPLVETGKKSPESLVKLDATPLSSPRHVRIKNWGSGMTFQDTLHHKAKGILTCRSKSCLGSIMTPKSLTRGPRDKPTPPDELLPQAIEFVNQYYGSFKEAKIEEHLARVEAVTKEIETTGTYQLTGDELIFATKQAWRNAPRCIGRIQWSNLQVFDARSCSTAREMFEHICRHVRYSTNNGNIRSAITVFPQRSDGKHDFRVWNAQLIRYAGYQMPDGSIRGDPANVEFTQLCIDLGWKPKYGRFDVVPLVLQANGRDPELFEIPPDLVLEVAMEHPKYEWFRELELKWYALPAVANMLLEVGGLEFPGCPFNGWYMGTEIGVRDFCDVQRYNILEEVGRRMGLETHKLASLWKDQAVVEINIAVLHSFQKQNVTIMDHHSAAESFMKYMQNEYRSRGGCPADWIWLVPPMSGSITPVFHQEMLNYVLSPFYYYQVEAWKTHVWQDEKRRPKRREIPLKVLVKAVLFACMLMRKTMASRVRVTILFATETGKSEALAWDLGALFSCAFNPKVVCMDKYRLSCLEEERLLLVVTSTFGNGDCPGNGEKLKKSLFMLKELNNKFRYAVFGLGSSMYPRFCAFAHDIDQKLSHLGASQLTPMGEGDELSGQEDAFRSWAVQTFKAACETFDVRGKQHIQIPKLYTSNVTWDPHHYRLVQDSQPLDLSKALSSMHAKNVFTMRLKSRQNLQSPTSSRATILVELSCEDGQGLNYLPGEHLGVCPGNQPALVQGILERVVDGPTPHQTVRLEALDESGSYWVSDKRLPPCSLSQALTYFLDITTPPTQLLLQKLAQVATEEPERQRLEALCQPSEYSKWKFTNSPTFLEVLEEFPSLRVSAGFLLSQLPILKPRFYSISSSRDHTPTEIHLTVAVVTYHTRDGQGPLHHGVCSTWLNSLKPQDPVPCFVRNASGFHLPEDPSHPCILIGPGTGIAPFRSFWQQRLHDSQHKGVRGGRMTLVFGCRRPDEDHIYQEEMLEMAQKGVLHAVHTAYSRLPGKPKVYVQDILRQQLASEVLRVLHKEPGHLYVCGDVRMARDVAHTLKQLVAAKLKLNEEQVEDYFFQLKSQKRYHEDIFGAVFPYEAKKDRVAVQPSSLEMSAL

Row | pIC50 (Nitric oxide synthase 1 [1]) | pIC50 [2] | pIC50 (Nitric oxide synthase 3) | inhibition [3] | inhibition (Nitric oxide synthase 1 [4]) | Structure (SMILES)
1 | 4.94 | 4.87 | 4.87 |  |  | CN(Cc1ccccc1)Cn1c(=O)oc2ccc(Cl)cc21
2 |  |  | 5.08 | 74% | 71% | CN(Cn1c(=O)oc2ccc(Cl)cc21)c1ccccn1
3 | 5.34 | 5.82 | 4.72 |  |  | O=c1oc2ccc(Cl)cc2n1CN1CCCCC1
4 | 4.30 | 5.13 | < 4.30 |  |  | Cc1ccc2nc(O)oc2n1
5 |  |  |  | 0% |  | O=c1oc2ccc(Cl)cc2n1CCN1CCOCC1
6 | < 4.30 | < 4.30 | < 4.30 |  |  | Sc1nc2cc(Cl)ccc2o1
7 |  | < 4.30 |  |  |  | Oc1nc2ncccc2o1
8 | 5.25 | 6.10 | 4.83 |  |  | O=c1oc2ccc(Cl)cc2n1CN1CCOCC1
9 | 4.30 | 5.00 | 4.97 |  |  | Cc1ccc2oc(O)nc2c1
10 | 4.88 | < 4.30 | < 4.30 |  |  | Cc1ccc2[nH]c(=O)oc2c1
11 | 5.36 | 5.46 | 4.69 |  |  | O=c1oc2ccc(Cl)cc2n1CN1CCSCC1
12 | 4.30 | 4.84 | 4.30 |  |  | N#Cc1ccc2oc(O)nc2c1

Row | Structure (SMILES) | pIC50 (Nitric oxide synthase 1 [1]) | pIC50 [2] | pIC50 (Nitric oxide synthase 3) | inhibition [3] | inhibition (Nitric oxide synthase 1 [4])
13 | Cc1cccc2oc(=O)[nH]c12 | < 4.30 | < 4.30 | < 4.30 |  | 
14 | CN(CCc1ccccc1)Cn1c(=O)oc2ccc(Cl)cc21 | 4.17 | 4.80 | 4.80 |  | 
15 | O=c1[nH]c2cc(F)ccc2o1 | < 4.30 | < 4.30 | < 4.30 |  | 
16 | CN1CCN(Cn2c(=O)oc3ccc(Cl)cc32)CC1 | 5.36 | 5.92 | 4.81 |  | 
